From patent US8987324B2, “Use of simalikalactone E as an anticancer agent” (Institut de Recherche pour le Developpement, priority 2011, dated 2015)
Where two headings read alike, the source gives them in different places.

Key:
[1] = test system: K562-Ima-S leukemia cell line; assay: XTT cell viability, K562-Ima-S; assay type: cell-based; details: 48 hours
Experimental: (§1) B1-1. XTT Cell Viability Measurement
(§2) This test measures the activity of mitochondrial succinate dehydrogenase, which represents an index of cell viability. This enzyme converts XTT into orange formazan. On day 0, the K562-Ima-S (sensitive to Ima), K562-Ima-R (resistant to Ima), A375 or MeWo cells are seeded at 15 000 cells/well (100 μl) in 96-well microplates and stimulated with increasing concentrations of Simalikalactone E [50-500 nM]. After 24 or 48 hours, 50 μl of tetrazolium (XTT reagent) are added to each well and the optical density at 490 nm is read every 30 minutes for 2 to 4 hours. The values obtained, which are an index of mitochondrial metabolism, make it possible to evaluate the percentage of live cells. Each condition is systematically carried out in triplicate.
(§3) The K562-Ima-S and K562-Ima-R tumor lines are incubated for 48 hours with increasing concentrations of Simalikalactone E (0, 100 or 250 nM) in the absence or in the presence of a maximally effective concentration (50 μM) of z-Vad-fmk (Zvad), which is a pan-caspase inhibitor (apoptosis inhibitor).

[2] = test system: K562-Ima-R leukemia cell line; assay: XTT cell viability, K562-Ima-R; assay type: cell-based; details: 48 hours
Experimental: as §1, §2, §3

A375 melanoma cells = assay: XTT cell viability, A375 melanoma cells; assay type: cell-based; details: 48 hours; A375 carry B-raf V600E, MeWo do not
Experimental: as §1, §2
A375 and MeWo melanoma cells are then treated in the presence of increasing doses of Simalikalactone E. 48 hours later, the cells are subjected to an XTT test. The A375 cells carry the V600E mutation on the B-raf oncogene, which is reflected by constitutive activation of the Erk pathway.

K562 cells = assay: Clonogenic capacity of K562 cells; assay type: cell-based; details: SkE 100, 250 or 500 nM versus 1 μM imatinib, 7 to 10 days
Experimental: B1-2. Evaluation of the Clonogenic Capacity of K562 Cells
Aliquots of methylcellulose (40% Methocult®, 1% L-glutamine, 5% FCS (fetal calf serum) and 54% IMDM (Iscove's modified Dulbecco's medium)) are heated for 1 h at 37° C. 400 μl of RPMI (Roswell Park Memorial Institute medium), 5% of FCS containing the treatment (1 μM imatinib, 100, 250 or 500 nM SkE), and then 10^3 K562 cells in 200 μl of medium are added to each aliquot. For each condition, 500 μl of the suspension obtained are then deposited in 3 wells of a 24-well plate. A nontreated condition serves as a control. The plates are incubated at 37° C. for 7 to 10 days. 75 μl of MTT tetrazolium salt (Roche) (2.5 mg/ml) are added to each well. The MTT tetrazolium salt is cleaved into purple-colored formazan crystals by the metabolically active cells. After incubation for 4 h at 37° C., the wells are photographed and the clones are quantified using the Image J program.

[3] = test system: CD34+ Bcr-Abl+ primary cells from patients suffering from CML; assay: XTT viability of CD34+ human primary cells from CML patients; assay type: cell-based; details: 48 hours
Experimental: The primary cells from patients suffering from CML (purified CD34+Bcr-Abl+) are incubated in the presence of variable concentrations of Simalikalactone E for 48 hours, and then the cell viability is quantified using an XTT colorimetric test. Imatinib (Ima) is used as a positive control for the induction of death of the Bcr-Abl+ cells.

[4] = test system: Erk1/2 kinase (MAP kinase) phosphorylation; assay: Western blot of death markers and Erk1/2 phosphorylation, K562-Ima-S; assay type: cell-based
Experimental: (§4) The characterization of the type of cell death involved in the effect of Simalikalactone E is carried out according to the following protocols: • apoptosis (type I cell death) is studied by assaying caspase activity, caspases being cysteine proteases involved in this type of process. The apoptosis is also quantified by annexin V/propidium iodide co-labeling, the cells which externalize the annexin V at the level of their […] being cells undergoing apoptosis, • autophagic death (type II cell death) is analyzed by assaying cathepsin activity, these proteases being, for their part, involved in the degradation of the intracellular material included in vesicles (autophagolysosomes). […] B1-4. Xenografts of K562-Luc Cells on Nude Mice
(§5) The K562-Ima-S (A) and K562-Ima-R (B) cells are treated for variable periods of time with 250 nM of Simalikalactone E. The cells are then lyzed and protein extracts are prepared for western blot analysis. Finally, the membranes are incubated in the presence of the various anti-PARP, LC3b, p-Erk1/2, Erk1/2 and HSP60 antibodies.
K562-Ima-S cells are then treated for 1 hour in the presence of 250 nM of Simalikalactone E or 10 μM of U0126 (specific inhibitor of MEK1/2, the kinase responsible for Erk1/2 (MAP kinase) phosphorylation and activation). The cells are then lyzed and protein extracts are prepared for western blot analysis. The membranes are then incubated in the presence of the p-Erk1/2, Erk1/2 and HSP60 antibodies.

[5] = test system: Erk1/2 kinase (MAP kinase) phosphorylation; assay: Western blot of death markers and Erk1/2 phosphorylation, K562-Ima-R; assay type: cell-based; details: 250 nM
Experimental: as §4, §5

[6] = test system: Rafl-dependent Erk1/2 (MAP kinase) phosphorylation; assay: Rafl-dependent Erk1/2 phosphorylation in inducible HEK-Rafl-ER cells; assay type: cell-based; details: 30 minutes preincubation, then 1 μM tamoxifen for 1 hour
Experimental: In the experiment presented in FIG. 6B, inducible HEK-Rafl-ER cells were used. These cells express the Raf kinase under the control of the estrogen receptor. The expression of Raf can therefore be induced in the presence of tamoxifen. The cells are preincubated for 30 minutes with increasing doses of Simalikalactone E or U0126, and then treated with 1 μM of tamoxifen for 1 hour. The cells are then lyzed and protein extracts are prepared for western blot analysis. The membranes are finally incubated in the presence of the various antibodies (p-Erk1/2, Erk1/2 and HSP60). Simalikalactone E and U0126 inhibit Rafl-dependent Erk1/2 (MAP kinase) phosphorylation.

Vero mammalian cells = details: cited from earlier work
[7] = test system: gametocyte forms of Plasmodium falciparum; details: compared with primaquine, reference molecule; cited from earlier work
[8] = test system: Plasmodium vinckei petteri; details: murine model of malaria, cited from earlier work
[9] = mice, orally for 4 days; cited from earlier work
certain cell lines = details: cited from earlier work

CCC(C)C(=O)O[C@@H]1[C@H]2C(C)=CC(=O)[C@@H](O)[C@]2(C)[C@H]2[C@@H](O)[C@H](O)[C@@]3(C)OC[C@@]24[C@@H]1OC(=O)[C@H](OC(=O)C(C)CC)[C@@H]34 (some centres unmarked) [Simalikalactone E]
effect on viability in the presence of caspase inhibitor z-Vad-fmk ([1]; 50 μM z-Vad-fmk): not modified | sensitivity (growth and viability) ([1]; 100 or 250 nM): sensitive | effect on viability in the presence of caspase inhibitor z-Vad-fmk ([2]; 50 μM z-Vad-fmk): not modified | sensitivity (growth and viability) ([2]; 100 or 250 nM): sensitive | sensitivity in XTT test compared with MeWo cells (A375 melanoma cells): much more sensitive | inhibition of clonogenic capacity (K562 cells): as effectively as imatinib | inhibition of cell metabolism compared with imatinib ([3]; 500 nM): as effective as imatinib | EC50 ([3]; Homo sapiens, read-out: dose giving the half-maximum effect): 0.1 µM | apoptosis marker (PARP cleavage) ([4]; 250 nM): no cleavage of PARP | autophagy marker (LC3 conversion) ([4]; 250 nM): no modification of LC3 | concentration of U0126 relative to Simalikalactone E for equal effect (times higher) ([4]; 250 nM SkE versus 10 μM U0126): 40 | inhibition of Erk1/2 phosphorylation compared with U0126 ([4]; 250 nM SkE versus 10 μM U0126, 1 hour): as effective as U0126 | Erk1/2 kinase (MAP kinase) phosphorylation ([4]; 250 nM, variable periods of time, imatinib-sensitive cells): inhibits | apoptosis marker (PARP cleavage) [5]: no cleavage of PARP | autophagy marker (LC3 conversion) [5]: no modification of LC3 | Erk1/2 kinase (MAP kinase) phosphorylation ([5]; variable periods of time, imatinib-resistant cells): inhibits | Rafl-dependent Erk1/2 (MAP kinase) phosphorylation [6]: inhibit | selectivity index (Vero mammalian cells; Vero cells versus Plasmodium falciparum): greater than 100 | IC50 (Vero mammalian cells; read-out: dose inhibiting 50% of the growth of Vero mammalian cells): 6.57 µM | concentration reducing the gametocyte level by 50%, relative to primaquine [7]: seven times lower | dose inhibiting 50% of the growth of Plasmodium vinckei petteri ([8]; intraperitoneally): 0.5 mg/kg/day | dose inhibiting 50% of the growth of Plasmodium vinckei petteri ([8]; orally): 1 mg/kg/day | dose tolerated [9]: 1 mg/kg/day | cytotoxic action (certain cell lines): moderate

N#CC(=C(/N)Sc1ccccc1N)/C(C#N)=C(\N)Sc1ccccc1N [U0126, reference compound]
Rafl-dependent Erk1/2 (MAP kinase) phosphorylation [6]: inhibit

CCN(CC)CCCC(C)Nc1ccnc2cc(Cl)ccc12 (centres unmarked) [chloroquine, reference compound]
dose inhibiting 50% of the growth of Plasmodium vinckei petteri ([8]; intraperitoneally): 3 mg/kg/day
